Laboratory results published in ChEMBL document CHEMBL5724914, “Linking interpersonal differences in gut microbiota composition and drug biotransformation activity” (2024).

Tests used:
[1] = human gut metagenome, 24 h, 2 µM
[2] = The drug is tested on Z-023 corresponding to metagenome with ENA study accession number: PRJEB37062 and ENA sample accession number: ERS12561822 for biotransformation under anaerobic condition. The drug concentrations were measured over 9 timepoints collected between 0 and 24 hours of incubation by liquid-chromatography-coupled mass spectrometry (LC–MS); conditions: 2 µM
[3] = human gut metagenome, 24 h, 2 µM; remark: listed apart in the source
[4] = human gut metagenome, 24 h, 2 µM; remark: listed apart in the source
[5] = human gut metagenome, 24 h, 2 µM; remark: listed apart in the source
[6] = The drug is tested on Z-005 corresponding to metagenome with ENA study accession number: PRJEB37062 and ENA sample accession number: ERS12561805 for biotransformation under anaerobic condition. The drug concentrations were measured over 9 timepoints collected between 0 and 24 hours of incubation by liquid-chromatography-coupled mass spectrometry (LC–MS); conditions: 2 µM
[7] = human gut metagenome, 24 h, 2 µM; remark: listed apart in the source
[8] = human gut metagenome, 24 h, 2 µM; remark: listed apart in the source
[9] = human gut metagenome, 24 h, 2 µM; remark: listed apart in the source
[10] = human gut metagenome, 24 h, 2 µM; remark: listed apart in the source
[11] = The drug is tested on Z-021 corresponding to metagenome with ENA study accession number: PRJEB37062 and ENA sample accession number: ERS12561820 for biotransformation under anaerobic condition. The drug concentrations were measured over 9 timepoints collected between 0 and 24 hours of incubation by liquid-chromatography-coupled mass spectrometry (LC–MS); conditions: 2 µM
[12] = The drug is tested on Z-012 corresponding to metagenome with ENA study accession number: PRJEB37062 and ENA sample accession number: ERS12561812 for biotransformation under anaerobic condition. The drug concentrations were measured over 9 timepoints collected between 0 and 24 hours of incubation by liquid-chromatography-coupled mass spectrometry (LC–MS); conditions: 2 µM
[13] = The drug is tested on Z-002 corresponding to rabbit gut metagenome with ENA study accession number: PRJEB37062 and ENA sample accession number: ERS12561802 for biotransformation under anaerobic condition. The drug concentrations were measured over 9 timepoints collected between 0 and 24 hours of incubation by liquid-chromatography-coupled mass spectrometry (LC–MS); conditions: 2 µM
[14] = human gut metagenome, 24 h, 2 µM; remark: listed apart in the source
[15] = human gut metagenome, 24 h, 2 µM; remark: listed apart in the source
[16] = human gut metagenome, 24 h, 2 µM; remark: listed apart in the source
[17] = The drug is tested on Z-006 corresponding to mouse gut metagenome with ENA study accession number: PRJEB37062 and ENA sample accession number: ERS12561806 for biotransformation under anaerobic condition. The drug concentrations were measured over 9 timepoints collected between 0 and 24 hours of incubation by liquid-chromatography-coupled mass spectrometry (LC–MS); conditions: 2 µM
[18] = The drug is tested on Z-020 corresponding to rabbit gut metagenome with ENA study accession number: PRJEB37062 and ENA sample accession number: ERS12561819 for biotransformation under anaerobic condition. The drug concentrations were measured over 9 timepoints collected between 0 and 24 hours of incubation by liquid-chromatography-coupled mass spectrometry (LC–MS); conditions: 2 µM
[19] = human gut metagenome, 24 h, 2 µM; remark: listed apart in the source
[20] = The drug is tested on Z-019 corresponding to rat gut metagenome with ENA study accession number: PRJEB37062 and ENA sample accession number: ERS12561818 for biotransformation under anaerobic condition. The drug concentrations were measured over 9 timepoints collected between 0 and 24 hours of incubation by liquid-chromatography-coupled mass spectrometry (LC–MS); conditions: 2 µM
Also: call rule not given here.

| Compound | Bacterial Biotransformation [1] | Bacterial Biotransformation [2] | Bacterial Biotransformation [3] | Bacterial Biotransformation [4] | Bacterial Biotransformation [5] | Bacterial Biotransformation [6] | Bacterial Biotransformation [7] | Bacterial Biotransformation [8] | Bacterial Biotransformation [9] | Bacterial Biotransformation [10] | Bacterial Biotransformation [11] | Bacterial Biotransformation [12] | Bacterial Biotransformation [13] | Bacterial Biotransformation [14] | Bacterial Biotransformation [15] | Bacterial Biotransformation [16] | Bacterial Biotransformation [17] | Bacterial Biotransformation [18] | Bacterial Biotransformation [19] | Bacterial Biotransformation [20] |
| --- | --- | --- | --- | --- | --- | --- | --- | --- | --- | --- | --- | --- | --- | --- | --- | --- | --- | --- | --- | --- |
| CC(C)N(CCC(C(N)=O)(c1ccccc1)c1ccccn1)C(C)C.O=P(O)(O)O (stereo not given) [DISOPYRAMIDE PHOSPHATE] | Compound NOT metabolized | Compound NOT metabolized | Compound NOT metabolized | Compound NOT metabolized | Compound NOT metabolized | Compound NOT metabolized | Compound NOT metabolized | Compound NOT metabolized | Compound metabolized | Compound NOT metabolized | Compound NOT metabolized | Compound NOT metabolized | Compound NOT metabolized | Compound NOT metabolized | Compound NOT metabolized | Compound metabolized | Compound NOT metabolized | Compound NOT metabolized | Compound metabolized | Compound NOT metabolized |
| C[C@@H](CO)NC(=O)[C@@H]1C=C2c3cccc4[nH]cc(c34)C[C@H]2N(C)C1.O=C(O)/C=C\C(=O)O [ERGONOVINE MALEATE] | Compound metabolized | Compound NOT metabolized | Compound metabolized | Compound metabolized | Compound NOT metabolized | Compound NOT metabolized | Compound NOT metabolized | Compound metabolized | Compound NOT metabolized | Compound metabolized | Compound NOT metabolized | Compound NOT metabolized | Compound NOT metabolized | Compound metabolized | Compound metabolized | Compound metabolized | Compound NOT metabolized | Compound NOT metabolized | Compound metabolized | Compound NOT metabolized |
| CCN(CC)C(C)CN1c2ccccc2Sc2ccccc21 (stereo not given) [ETHOPROPAZINE] | Compound metabolized | Compound metabolized | Compound metabolized | Compound metabolized | Compound metabolized | Compound metabolized | Compound metabolized | Compound metabolized | Compound metabolized | Compound metabolized | Compound metabolized | Compound metabolized | Compound metabolized | Compound metabolized | Compound metabolized | Compound metabolized | Compound NOT metabolized | Compound NOT metabolized | Compound metabolized | Compound NOT metabolized |
